Data taken from patent US10961200B2, “Small molecule inhibitors of lactate dehydrogenase and methods of use thereof” (THE UNITED STATES OF AMERICA, AS REPRESENTED BY THE …, priority 2014, dated 2021).
Read-outs that look alike come from different tables or passages of the source.

Experiments:
[1] = oral pharmacokinetics in male CD1 mice (plasma, LC/MS/MS); format: in vivo; conditions: oral 10 mg/kg; for F: fraction of the dose that enters systemic circulation
Human LDHA = Human LDHA (Homo sapiens (Human), UniProt P00338); assay: human LDHA primary biochemical assay (resazurin/diaphorase coupled, fluorescence)
Source text: Test compounds were placed in a Greiner Bio-One (Monroe, N.C.) 1536-well black solid bottom assay plate. 200 millimolar (mM) Tris HCl, pH 7.4, 100 micromolar […] EDTA and 0.01% TWEEN-20™, final concentration, was used as the assay buffer. The LDHA reagent was 2 nanomolar (nM) Human LDHA (Meridian Life Science, Inc., Memphis, Tenn.), final concentration, in assay buffer.

MiaPaCa2 cells = assay: cell-based HT lactate assay, colorimetric/fluorometric detection (inhibition of lactate production); conditions: class symbols, 0 to 3 pluses
[2] = LDHA inhibitory activity, activity level based on IC50 (Table 7)
[3] = LDHA inhibitory activity, assay of Example 1, activity level classes
[4] = read-out: Inhibitory activity IC50

Structure (SMILES) | IC50 (Human LDHA; [2]) | IC50 (MiaPaCa2 cells) | also measured
NS(=O)(=O)c1ccc(Cc2c(-c3cccc(-c4ccccc4)c3)nn(-c3nc(C(=O)O)cs3)c2C(F)(F)F)cc1 [Compound 42, 2-(3-([1,1′-biphenyl]-3-yl)-4-(4-sulfamoylbenzyl)-5-(trifluoromethyl)-1H-pyrazol-1-yl)thiazole-4-carboxylic acid] | – | – | AUC(0-t) ([1]; mouse, plasma): 1.21 µg·h/mL; Cmax ([1]; mouse, plasma): 0.159 µg/mL; F [1]: 34%
CCOC(=O)c1csc(-n2nc(-c3cccc(-c4ccccc4)c3)c(Cc3ccc(S(N)(=O)=O)cc3)c2C(F)(F)F)n1 [Compound 141, ethyl 2-(3-([1,1′-bipheny]-3-yl)-4-(4-sulfamoylbenzyl)-5-(trifluoromethyl)-1H-pyrazol-1-yl)thiazole-4-carboxylate] | – | – | F [1]: 69%
COc1cccc(-c2cc(F)cc(-c3nn(-c4nc(C(=O)O)cs4)c(CC4CC4)c3Cc3ccc(S(N)(=O)=O)cc3)c2)c1 [Compound 478, 2-(5-(cyclopropylmethyl)-3-(5-fluoro-3′-methoxy-[1,1′-biphenyl]-3-yl)-4-(4-sulfamoylbenzyl)-1H-pyrazol-1-yl)thiazole-4-carboxylic Acid] | < 0.1 µM | – | IC50 (MiaPaCa2 cells; Homo sapiens, MIA PaCa-2): 1 to 10 µM
Cc1ccc(-c2cccc(-c3nn(-c4nc(C(=O)O)cs4)c(CC4CC4)c3Cc3ccc(S(N)(=O)=O)cc3)c2)cc1 [Compound 281] | – | < 1 µM | IC50 (Human LDHA; [3]): < 0.1 µM
C=C(C)C#Cc1cc(-c2nn(-c3nc(C(=O)O)cs3)c(CC3CC3)c2Cc2ccc(S(N)(=O)=O)c(F)c2)ccc1F [Compound 264] | – | < 1 µM | IC50 (Human LDHA; [3]): < 0.1 µM
NS(=O)(=O)c1ccc(Cc2c(-c3ccc(F)c(C#CC4(F)CCOC4)c3)nn(-c3nc(C(=O)O)cs3)c2CC2CC2)cc1F (centres unmarked) [Compound 419] | < 0.1 µM | < 1 µM | –
NS(=O)(=O)c1ccc(Cc2c(-c3ccc(F)c(C(=O)N4CCCC4)c3)nn(-c3nc(C(=O)O)cs3)c2CC2CC2)cc1F [Compound 545, 2-(5-(cyclopropylmethyl)-3-(4-fluoro-3-(pyrrolidine-1-carbonyl)phenyl)-4-(3-fluoro-4-sulfamoylbenzyl)-1H-pyrazol-1-yl)thiazole-4-carboxylic acid] | < 0.1 µM | – | IC50 (MiaPaCa2 cells; Homo sapiens, MIA PaCa-2): 10 to 57 µM
N[S+](=O)([O-])c1ccc(Cc2c(-c3ccc(F)c(-c4ccccc4)c3)nn(-c3nc(C(=O)O)cs3)c2CC2CC2)cc1F [Compound 367] | < 0.1 µM | < 1 µM | –
NS(=O)(=O)c1ccc(Cc2c(-c3ccc(F)c(C#CC4(O)COC4)c3)nn(-c3nc(C(=O)O)cs3)c2CC2CC2)cc1F [Compound 415] | < 0.1 µM | 1 to 10 µM | –
N[S+](=O)([O-])c1ccc(Cc2c(-c3ccc(F)c(CCCCC(F)(F)F)c3)nn(-c3nc(C(=O)O)cs3)c2CC2CC2)cc1F [Compound 388] | < 0.1 µM | 1 to 10 µM | –
CCOC(=O)c1csc(-n2nc(-c3cccc(-c4ccccc4)c3)c(Cc3ccc(S(N)(=O)=O)c(F)c3)c2CC2CC2)n1 [Compound 393] | > 57 µM | > 57 µM | –
NS(=O)(=O)c1ccc(Cc2c(-c3ccc(F)c(F)c3)nn(-c3nc(C(=O)O)cs3)c2I)cc1 [Compound 43, 2-(3-(3,4-difluorophenyl)-5-iodo-4-(4-sulfamoylbenzyl)-1H-pyrazol-1-yl)thiazole-4-carboxylic acid] | – | – | IC50 (Human LDHA; [3]): < 0.1 µM; IC50 (MiaPaCa2 cells; Homo sapiens, MIA PaCa-2): 10 to 57 µM
N[S+](=O)([O-])c1ccc(Cc2c(-c3ccc(F)c(C4CCOCC4)c3)nn(-c3nc(C(=O)O)cs3)c2CC2CC2)cc1F [Compound 391] | < 0.1 µM | < 1 µM | –
Cn1cncc1C#Cc1cc(-c2nn(-c3nc(C(=O)O)cs3)c(CC3CC3)c2Cc2ccc(S(N)(=O)=O)c(F)c2)ccc1F [Compound 405] | < 0.1 µM | < 1 µM | –
CCOC(=O)c1csc(-n2nc(-c3ccc(F)c(-c4ccc(C)s4)c3)c(Cc3ccc(S(N)(=O)=O)c(F)c3)c2CC2CC2)n1 [Compound 229, ethyl 2-(5-(cyclopropylmethyl)-3-(4-fluoro-3-(5-methylthiophen-2-yl)phenyl)-4-(3-fluoro-4-sulfamoylbenzyl)-1H-pyrazol-1-yl)thiazole-4-carboxylate] | – | – | IC50 (Human LDHA; [4]): > 57 µM; IC50 (MiaPaCa2 cells; Homo sapiens, MIA PaCa-2): > 57 µM
N[S+](=O)([O-])c1ccc(Cc2c(-c3ccc(F)c(C#CCC4CCCO4)c3)nn(-c3nc(C(=O)O)cs3)c2CC2CC2)cc1F (centres unmarked) [Compound 421] | < 0.1 µM | 1 to 10 µM | –

Structure (SMILES) | IC50 (Human LDHA; [2]) | IC50 (MiaPaCa2 cells) | also measured
NS(=O)(=O)c1ccc(Cc2c(-c3ccc(F)c(C#CC(F)F)c3)nn(-c3nc(C(=O)O)cs3)c2CC2CC2)cc1F [Compound 440] | < 0.1 µM | 1 to 10 µM | –
Cc1ccc(-c2cc(-c3nn(-c4nc(C(=O)O)cs4)c(CC4CC4)c3Cc3ccc(S(N)(=O)=O)c(F)c3)ccc2F)s1 [Compound 227, 2-(5-(cyclopropylmethyl)-3-(4-fluoro-3-(5-methylthiophen-2-yl)phenyl)-4-(3-fluoro-4-sulfamoylbenzyl)-1H-pyrazol-1-yl)thiazole-4-carboxylic acid] | – | – | IC50 (Human LDHA; [4]): < 0.1 µM; IC50 (MiaPaCa2 cells; Homo sapiens, MIA PaCa-2): < 1 µM
N[S+](=O)([O-])c1ccc(Cc2c(-c3ccc(F)c(C#CC4CCCC4)c3)nn(-c3nc(C(=O)O)cs3)c2C2CC2)cc1F [Compound 431] | < 0.1 µM | < 1 µM | –
N[S+](=O)([O-])c1ccc(Cc2c(-c3ccc(F)c(-c4ccc(C5CC5)cc4)c3)nn(-c3nc(C(=O)O)cs3)c2CC2CC2)cc1 [Compound 294] | – | < 1 µM | IC50 (Human LDHA; [3]): < 0.1 µM
Cc1cc(-c2ccc(F)cc2)cc(-c2nn(-c3nc(C(=O)O)cs3)c(CC3CC3)c2Cc2ccc(S(N)(=O)=O)cc2)c1 [Compound 506, 2-(5-(cyclopropylmethyl)-3-(4′-fluoro-5-methyl-[1,1′-biphenyl]-3-yl)-4-(4-sulfamoylbenzyl)-1H-pyrazol-1-yl)thiazole-4-carboxylic Acid] | < 0.1 µM | – | IC50 (MiaPaCa2 cells; Homo sapiens, MIA PaCa-2): 1 to 10 µM
NS(=O)(=O)c1ccc(Cc2c(-c3ccc(F)c(C#CC4CCOC4)c3)nn(-c3nc(C(=O)O)cs3)c2CC2CC2)cc1F (centres unmarked) [Compound 423] | < 0.1 µM | < 1 µM | –
NS(=O)(=O)c1ccc(Cc2c(-c3cccc(Oc4cccc(F)c4)c3)nn(-c3nc(C(=O)O)cs3)c2CC2CC2)cc1 [Compound 526, 2-(5-(cyclopropylmethyl)-3-(3-(3-fluorophenoxy)phenyl)-4-(4-sulfamoylbenzyl)-1H-pyrazol-1-yl)thiazole-4-carboxylic Acid] | 0.1 to 1 µM | – | IC50 (MiaPaCa2 cells; Homo sapiens, MIA PaCa-2): 10 to 57 µM
N[S+](=O)([O-])c1ccc(Cc2c(-c3ccc(F)c(-c4ccc(F)cc4)c3)nn(-c3nc(C(=O)O)cs3)c2CC2CC2)c(F)c1 [Compound 309] | – | < 1 µM | IC50 (Human LDHA; [3]): < 0.1 µM
CC#Cc1cccc(-c2nn(-c3ncc(C(=O)OCC)s3)c(CC3CC3)c2Cc2ccc(S(N)(=O)=O)c(F)c2)c1 [Compound 269] | – | < 1 µM | IC50 (Human LDHA; [3]): 1 to 57 µM
CC(c1ccccc1)c1cc(-c2nn(-c3nc(C(=O)O)cs3)c(CC3CC3)c2Cc2ccc(S(N)(=O)=O)c(F)c2)ccc1F (centres unmarked) [Compound 384] | < 0.1 µM | < 1 µM | –
N[S+](=O)([O-])c1ccc(Cc2c(-c3ccc(F)c(-c4cccc(F)c4)c3)nn(-c3nc(C(=O)O)cs3)c2CC2CC2)cc1F [Compound 326] | – | < 1 µM | IC50 (Human LDHA; [3]): < 0.1 µM
N[S+](=O)([O-])c1ccc(Cc2c(-c3ccc(F)c(-c4ccc(F)cc4)c3)nn(-c3nc(C(=O)O)cs3)c2CC2CC2)cc1 [Compound 310] | – | < 1 µM | IC50 (Human LDHA; [3]): < 0.1 µM
CCC(C)(C)c1cc(-c2nn(-c3nc(C(=O)O)cs3)c(CC3CC3)c2Cc2ccc(S(N)(=O)=O)c(F)c2)ccc1F [Compound 381] | < 0.1 µM | < 1 µM | –
N[S+](=O)([O-])c1ccc(Cc2c(-c3ccc(F)c(C4CCCCC4)c3)nn(-c3nc(C(=O)O)cs3)c2CC2CC2)cc1F [Compound 374] | < 0.1 µM | < 1 µM | –
N[S+](=O)([O-])c1ccc(Cc2c(-c3ccc(F)c(-c4cccc(CN5CCOCC5)c4)c3)nn(-c3nc(C(=O)O)cs3)c2CC2CC2)cc1F [Compound 387] | < 0.1 µM | 1 to 10 µM | –
